# Test results reported in patent US8334135B2, “Stem cells from adipose tissue, and differentiated cells from said cells” (Yves Saint Laurent Parfums, priority 2002, dated 2012).
# Entries after “also recorded” stand apart in the source; their conditions may differ.
# Columns and labels:
# [1] = tested on: adipocytes obtained from Primo 2CA T32 cells; test: Lipolysis test (glycerol liberated by adipocytes in the presence of adrenergic receptor agonists); type: cell-based, human; settings: adipocytes from Primo 2CA T32 cells (about 140 population doublings); control 5.76
# Protocol: Lipolyses were carried out on adipocytes obtained from Primo 2CA T32 cells (about 140 population doublings), with agonists specific for different β-adrenergic receptors.
# This test consists of measuring the radiolabelled glycerol liberated by adipocytes in the presence of adrenergic receptor agonists. The method used is that described by Bradley D C and Kaslow H R (Anal Biochem, 1989, 180, 11-16). The glycerol liberated is phosphorylated in the presence of glycerokinase and ATP and ATP labeled with ^32P in the […]. The residual ATP is then hydrolyzed in an acid medium at 90° C. and precipitated with ammonium molybdate and triethylamine. The radioactivity incorporated in the form of glycerophosphate labelled with ^32P is estimated by counting in a β counter and the values are expressed in pmol using a calibration curve.
# Lipolyses were carried out on Primo 2CA T32 cells with specific agonists for the different β adrenergic receptors, namely: • Isoproterenol: β1, β2 adrenergic • Dobutamine: β1 adrenergic • Terbutaline: β2 adrenergic • CL316243 β3 adrenergic: […]
# CA population = test: Effect of bFGF on proliferation of the quiescent CA population; type: cell-based, human
# Protocol: The addition of growth factors such as bFGF incorporated, for example, at a concentration of about 3 to 20 ng/ml of medium, in particular 5 to 10 ng/ml, not only halves the population doubling time (for example the population doubling time without bFGF is about 72 hours, while it is about 36 hours with bFGF), but also allows the population to reach confluence. Without growth factors, proliferation of a quiescent population of stem cells of the invention can be provoked by trypsination and dilution, but proliferation will spontaneously stop at about 70% confluence. Since confluence is indispensable in vitro for initiating the differentiation of many cell types, the use of growth factors such as bFGF must be envisaged for in vitro production of this type of differentiated cell.
# These observations confirm the quiescent state of the CA population and the state of senescence in the CS population.
# After establishing a population of quiescent CA cells, human bFGF (basic Fibroblast Growth Factor) is added to the culture medium described above in a concentration of 5 ng/ml of medium.
# CS population = test: Effect of bFGF on proliferation of the CS population at late stages; type: cell-based, human; settings: bFGF 5 ng/ml, after 50 population doublings
# Primo 2CS cells = test: Glycerophosphate dehydrogenase (GPDH) activity during adipocyte differentiation of Primo 2CS cells; type: cell-based; settings: Primo 2CS cells T22 in the presence of human bFGF; after 13 days of differentiation (3 experiments); control 22
# Protocol: (§1) The confluent cells are incubated in a DMEM/Ham's F12 (vol/vol, 1:1) medium supplemented with 100 U/ml of penicillin, 100 μg/ml of streptomycin, 5 μg/ml of human insulin (Sigma), 10 μg/ml of human transferrin (Sigma), 1 μM of PPAR activator (for example BRL49653), 100 to 250 μM of isobutyl-methylxanthine (IBMX) and 1 μM of dexamethasone. 48 to 72 hours later, this medium is replaced by the medium described above but containing no IBMX and dexamethasone. This differentiation medium is replaced every 2-3 days for a period of 15 to 20 days corresponding to an optimum adipocyte differentiation. Firstly, the cells which are to have the GPDH activity measure, are lysed. […] The reading is made with a spectrophotometer, allowing kinetic measurements to be carried out (KONTRON Uvicon 860 thermostatted at 37° C.).
# Primo 2CA cells = test: Glycerophosphate dehydrogenase (GPDH) activity during adipocyte differentiation of Primo 2CA cells; type: cell-based; settings: Primo 2CA cells T24 in the presence of human bFGF
# Protocol: as §1
# [2] = tested on: stem cells of the invention; test: Effect of Leukemia Inhibitory Factor on morphology and proliferation of the stem cells; type: cell-based, human; settings: LIF 10 ng/ml
# Protocol: For this enrichment step, different culture media were tested.
compound,measurement,setting,value
CC(C)(C)NCC(O)c1cc(O)cc(O)c1 (stereo not shown) [Terbutaline],lipolysis rate,[1],93.78 nmol/h/mg of protein
bFGF: human basic Fibroblast Growth Factor,effect on proliferation of CA population,"CA population; bFGF 5 ng/ml, late stages, after 50 population doublings",effectively respond
same,population doubling time,"CA population; with bFGF (about 3 to 20 ng/ml), about 72 hours without bFGF",about 36 hours
same,effect on proliferation of CS population,CS population,no significant effect; also recorded: practically no effect
CN(CCOc1ccc(CC2SC(=O)NC2=O)cc1)c1ccccn1 (stereo not shown) [BRL49653],GPDH activity,Primo 2CS cells,30 nmol/min/mg of protein
same,GPDH activity,"Primo 2CA cells; after 11 days of differentiation (2 experiments), control 77",290 nmol/min/mg of protein
same,GPDH activity,"Primo 2CA cells; after 16 days of differentiation (3 experiments), control 20",390 nmol/min/mg of protein
C[C@H](Cc1ccc2c(c1)OC(C(=O)[O-])(C(=O)[O-])O2)NC[C@H](O)c1cccc(Cl)c1.[Na+].[Na+] [CL316243],lipolysis rate,[1],17.1 nmol/h/mg of protein
CC(CCc1ccc(O)cc1)NCCc1ccc(O)c(O)c1 (stereo not shown) [Dobutamine],lipolysis rate,[1],60.1 nmol/h/mg of protein
LIF: Leukemia Inhibitory Factor,effect on morphology or proliferation of the cells,[2],no change in the morphology or proliferation; also recorded: no changes in morphology or proliferation
